Measurements as given in patent US11759461B2, “Small molecule inhibitors of cancer stem cells and mesenchymal cancer types” (The Scripps Research Institute, priority 2017, dated 2023).
pIC50: −log10 of the molar value.

System: FOXC2-expressing HMLER cells
Test: Cell Titer Glo viability of FOXC2-HMLER cells (high throughput screen and 10-point response)
Assay type: cell-based
Conditions: Homo sapiens; scored relative to parent compound 2; 72 hours; read-out: Activity Score, inhibition of FOXC2-expressing HMLER cells by Formula II compounds
Protocol: For high throughput screening, FOXC2-HMLER and HMLER cells were plated at 10^3 cells per well in white 384-well plates in 50 μL of MEGM medium (Lonza). Cells were allowed to attach for one hour before compound was transferred to each well as a DMSO solution using a 100 nL pintool head affixed to a PerkinElmer FX instrument. After 72-hour incubation, 30 μL of a Cell Titer Glo solution (diluted 1:6 in water, Promega) was dispensed into each well and luminance values were recorded using an Envision plate reader. […] All other miniaturized, selective viability experiments were performed as above using the indicated growth medium.
More specifically, in the high throughput screening assay above, each cell line was plated at 1,000 cells per well in 384-well plates, treated for 72 hours with 2 μM of test compound, and the viability of each line was determined in parallel by Cell Titer Glo (Promega) luminance measurements.

Row | SMILES | pIC50
1 | CCc1ccc(NCc2cc3ccc(OC)cc3n(CC(=O)NCc3ccc(C)cc3)c2=O)cc1 [Compound 2DQ] | < 4.70
2 | COc1ccc2cc(CNc3ccc(C)cc3)c(=O)n(CC(=O)Nc3ccc(C)c(Cl)c3)c2c1 [Compound 2DR] | < 4.70
3 | COc1ccc2cc(CNc3ccccc3)c(=O)n(CC(=O)Nc3ccc(C(C)C)cc3)c2c1 [Compound 2DS] | < 4.70
4 | CCc1ccc(NCc2cc3ccc(OC)cc3n(CC(=O)Nc3ccc(C)cc3)c2=O)cc1 [Compound 2DT] | < 4.70
5 | COc1ccccc1NC(=O)Cn1c(=O)c(CNc2ccccc2)cc2ccc(C)cc21 [Compound 2DU] | < 4.70
6 | CCc1ccc(NCc2cc3ccc(OC)cc3n(CC(=O)Nc3ccccc3OC)c2=O)cc1 [Compound 2DV] | < 4.70
7 | CCc1ccc(NCc2cc3cc4c(cc3n(CC(=O)Nc3ccccc3)c2=O)OCCO4)cc1 [Compound 2DW] | < 4.70
8 | COc1cccc(NC(=O)Cn2c(=O)c(CNc3ccccc3)cc3ccc(OC)cc32)c1 [Compound 2DX] | < 4.70
9 | COc1ccc(NCc2cc3cc4c(cc3n(CC(=O)NCc3ccccc3)c2=O)OCCO4)cc1 [Compound 2DY] | < 4.70
10 | COc1ccc2cc(CNc3ccc(C)cc3)c(=O)n(CC(=O)NCc3ccc(F)cc3)c2c1 [Compound 2DZ] | < 4.70
11 | CCOC(=O)c1ccccc1NC(=O)Cn1c(=O)c(CNc2ccc(C)cc2)cc2ccc(OC)cc21 [Compound 2D] | 4.70 to 6.00
12 | CCc1ccc(NCc2cc3ccc(OC)cc3n(CC(=O)NCc3ccccc3)c2=O)cc1 [Compound 2EA] | < 4.70
13 | COc1ccc2cc(CNc3ccc(C)cc3)c(=O)n(CC(=O)Nc3ccccc3Cl)c2c1 [Compound 2EB] | < 4.70
14 | CCc1ccc(NCc2cc3cc(OC)c(OC)cc3n(CC(=O)Nc3ccc(C)c(C)c3)c2=O)cc1 [Compound 2EC] | < 4.70
15 | COc1ccc2cc(CNc3ccccc3)c(=O)n(CC(=O)Nc3cccc(C)c3)c2c1 [Compound 2ED] | < 4.70
16 | COc1ccc2cc(CNc3ccccc3)c(=O)n(CC(=O)Nc3cccc(C(F)(F)F)c3)c2c1 [Compound 2EE] | < 4.70
17 | COc1ccccc1NC(=O)Cn1c(=O)c(CNc2ccccc2)cc2cc3c(cc21)OCCO3 [Compound 2EF] | < 4.70
18 | COc1ccc2cc(CNc3ccccc3)c(=O)n(CC(=O)Nc3ccc4c(c3)OCCO4)c2c1 [Compound 2EG] | < 4.70
19 | COc1cc2cc(CNc3ccccc3)c(=O)n(CC(=O)Nc3cccc(C)c3)c2cc1OC [Compound 2EH] | < 4.70
20 | COc1ccc(NC(=O)Cn2c(=O)c(CNc3ccc(C)cc3)cc3ccc(OC)cc32)cc1 [Compound 2EI] | < 4.70
21 | COc1ccc2cc(CNc3ccccc3)c(=O)n(CC(=O)Nc3ccc(F)c(F)c3)c2c1 [Compound 2EJ] | < 4.70
22 | CCc1ccc(NCc2cc3ccc(OC)cc3n(CC(=O)Nc3ccc(C(C)C)cc3)c2=O)cc1 [Compound 2EK] | < 4.70
23 | COc1ccc2cc(CNc3ccc(C)cc3)c(=O)n(CC(=O)Nc3cccc(C)c3)c2c1 [Compound 2EL] | < 4.70
24 | COc1ccc(NCc2cc3cc(OC)c(OC)cc3n(CC(=O)Nc3ccccc3C)c2=O)cc1 [Compound 2EM] | < 4.70
25 | COc1ccc2cc(CNc3ccccc3)c(=O)n(CC(=O)Nc3ccc(C)cc3C)c2c1 [Compound 2EN] | < 4.70

Row | SMILES | pIC50
26 | COc1ccc(NCc2cc3ccc(OC)cc3n(CC(=O)Nc3ccc(C)c(Cl)c3)c2=O)cc1 [Compound 2EO] | < 4.70
27 | COc1cc2cc(CNc3ccccc3)c(=O)n(CC(=O)Nc3ccccc3)c2cc1OC [Compound 2EP] | < 4.70
28 | O=C(Cn1c(=O)c(CNc2ccccc2)cc2cc3c(cc21)OCCO3)Nc1ccccc1 [Compound 2EQ] | < 4.70
29 | COc1ccc2cc(CNc3ccc(C)cc3)c(=O)n(CC(=O)Nc3ccc(C(C)C)cc3)c2c1 [Compound 2ER] | < 4.70
30 | COc1ccccc1NC(=O)Cn1c(=O)c(CNc2ccccc2)cc2cc(OC)c(OC)cc21 [Compound 2ES] | < 4.70
31 | COc1ccc2cc(CNc3ccccc3)c(=O)n(CC(=O)Nc3ccc(C)cc3)c2c1 [Compound 2ET] | < 4.70
32 | COc1cccc(NC(=O)Cn2c(=O)c(CNc3ccc(OC)c(OC)c3)cc3ccc(C)cc32)c1 [Compound 2EU] | < 4.70
33 | COc1ccc(NCc2cc3ccc(OC)cc3n(CC(=O)Nc3cccc(Cl)c3)c2=O)cc1 [Compound 2EV] | < 4.70
34 | COc1ccc2cc(CNc3ccccc3)c(=O)n(CC(=O)Nc3cc(F)ccc3F)c2c1 [Compound 2EW] | < 4.70
35 | COc1ccc2cc(CNc3ccccc3)c(=O)n(CC(=O)Nc3cccc(C(C)=O)c3)c2c1 [Compound 2EX] | < 4.70
36 | Cc1ccc(NCc2cc3cc4c(cc3n(CC(=O)Nc3ccc(C)cc3C)c2=O)OCCO4)cc1 [Compound 2EY] | < 4.70
37 | COc1ccc2cc(CNc3ccccc3)c(=O)n(CC(=O)Nc3cccc(Cl)c3C)c2c1 [Compound 2EZ] | < 4.70
38 | CCOc1ccc(NC(=O)Cn2c(=O)c(CNc3ccc(C)cc3)cc3ccc(OC)cc32)cc1 [Compound 2E] | 4.70 to 6.00
39 | COc1ccc2cc(CNc3ccccc3)c(=O)n(CC(=O)Nc3cccc(SC)c3)c2c1 [Compound 2FA] | < 4.70
40 | CCc1ccc(NC(=O)Cn2c(=O)c(CNc3ccc(C)cc3)cc3cc(OC)c(OC)cc32)cc1 [Compound 2FB] | < 4.70
41 | COc1ccc2cc(CNc3ccc(C)cc3)c(=O)n(CC(=O)Nc3cc(Cl)ccc3C)c2c1 [Compound 2FC] | < 4.70
42 | COc1ccc(NCc2cc3ccc(OC)cc3n(CC(=O)Nc3cc(Cl)ccc3C)c2=O)cc1 [Compound 2FD] | < 4.70
43 | COc1cc2cc(CNc3ccccc3)c(=O)n(CC(=O)Nc3ccc(C)c(C)c3)c2cc1OC [Compound 2FE] | < 4.70
44 | COc1cc2cc(CNc3ccc(C)cc3)c(=O)n(CC(=O)Nc3ccccc3C)c2cc1OC [Compound 2FF] | < 4.70
45 | O=C(Cn1c(=O)c(CNc2ccccc2)cc2cc3c(cc21)OCCO3)Nc1ccc2c(c1)OCCO2 [Compound 2FG] | < 4.70
46 | COc1cc2cc(CNc3ccc(C)cc3)c(=O)n(CC(=O)Nc3ccc(Cl)cc3)c2cc1OC [Compound 2FH] | < 4.70
47 | COc1ccc2cc(CNc3ccc(C)cc3)c(=O)n(CC(=O)Nc3ccc(C)c(F)c3)c2c1 [Compound 2FI] | < 4.70
48 | CCc1ccccc1NC(=O)Cn1c(=O)c(CNc2ccc(C)cc2)cc2ccc(OC)cc21 [Compound 2FJ] | < 4.70
49 | COc1ccc2cc(CNc3ccc(OC)c(OC)c3)c(=O)n(CC(=O)Nc3cccc(C)c3)c2c1 [Compound 2FK] | < 4.70
50 | CCc1cccc(NC(=O)Cn2c(=O)c(CNc3ccc(C)cc3)cc3ccc(OC)cc32)c1 [Compound 2FL] | < 4.70

Row | SMILES | pIC50
51 | COc1cccc(NC(=O)Cn2c(=O)c(CNc3ccccc3)cc3ccc(C)cc32)c1 [Compound 2FM] | < 4.70
52 | COc1ccc2cc(CNc3ccc(C)cc3)c(=O)n(CC(N)=O)c2c1 [Compound 2FN] | < 4.70
53 | CCc1ccc(NCc2cc3ccc(OC)cc3n(CC(=O)Nc3cccc(F)c3)c2=O)cc1 [Compound 2FO] | < 4.70
54 | COc1cc2cc(CNc3ccccc3)c(=O)n(CC(=O)Nc3ccc(Cl)cc3)c2cc1OC [Compound 2FP] | < 4.70
55 | Cc1ccc(C)c(NC(=O)Cn2c(=O)c(CNc3ccccc3)cc3cc4c(cc32)OCCO4)c1 [Compound 2FQ] | < 4.70
56 | CCc1ccc(NCc2cc3ccc(OC)cc3n(CC(=O)Nc3ccc4c(c3)OCCO4)c2=O)cc1 [Compound 2FR] | < 4.70
57 | COc1cc2cc(CNc3ccccc3)c(=O)n(CC(=O)Nc3ccccc3Cl)c2cc1OC [Compound 2FS] | < 4.70
58 | CCc1ccc(NCc2cc3ccc(OC)cc3n(CC(=O)Nc3cccc(OC)c3)c2=O)cc1 [Compound 2FT] | < 4.70
59 | COc1cc2cc(CNc3ccc(C)cc3)c(=O)n(CC(=O)Nc3ccccc3)c2cc1OC [Compound 2FU] | < 4.70
60 | COc1ccc2cc(CNc3ccc(C)cc3)c(=O)n(CC(=O)Nc3ccccc3)c2c1 [Compound 2FV] | < 4.70
61 | Cc1ccc(NCc2cc3cc4c(cc3n(CC(=O)Nc3ccc(C)cc3)c2=O)OCCO4)cc1 [Compound 2FW] | < 4.70
62 | COc1ccc(NCc2cc3ccc(OC)cc3n(CC(=O)Nc3ccc(C)c(C)c3)c2=O)cc1 [Compound 2FX] | < 4.70
63 | COc1cc2cc(CNc3ccc(C)cc3)c(=O)n(CC(=O)Nc3ccc(C)cc3)c2cc1OC [Compound 2FY] | < 4.70
64 | COc1ccc(CNC(=O)Cn2c(=O)c(CNc3ccc(C)cc3)cc3ccc(OC)cc32)cc1 [Compound 2FZ] | < 4.70
65 | COc1ccc(NCc2cc3ccc(C)cc3n(CC(=O)Nc3ccc(C)cc3C)c2=O)cc1OC [Compound 2F] | 4.70 to 6.00
66 | CCc1ccc(NCc2cc3cc4c(cc3n(CC(=O)Nc3cccc(OC)c3)c2=O)OCCO4)cc1 [Compound 2GA] | < 4.70
67 | CCc1ccc(NCc2cc3ccc(OC)cc3n(CC(=O)Nc3ccc(Cl)cc3)c2=O)cc1 [Compound 2GB] | < 4.70
68 | COc1cccc(NC(=O)Cn2c(=O)c(CNc3ccc(C)cc3)cc3cc4c(cc32)OCCO4)c1 [Compound 2GC] | < 4.70
69 | COc1ccc(NCc2cc3cc4c(cc3n(CC(=O)Nc3ccc(C)c(C)c3)c2=O)OCCO4)cc1 [Compound 2GD] | < 4.70
70 | COc1ccc(NC(=O)Cn2c(=O)c(CNc3ccccc3)cc3ccc(C)cc32)cc1OC [Compound 2GE] | < 4.70
71 | COc1ccc2cc(CNc3ccc(C)cc3)c(=O)n(CC(=O)Nc3cccc(C(C)=O)c3)c2c1 [Compound 2GF] | < 4.70
72 | COc1cc2cc(CNc3ccccc3)c(=O)n(CC(=O)Nc3cc(C)cc(C)c3)c2cc1OC [Compound 2GG] | < 4.70
73 | COc1ccc2cc(CNc3ccc(C)cc3)c(=O)n(CC(=O)Nc3cccc(SC)c3)c2c1 [Compound 2GH] | < 4.70
